In the METLIN SMRT retention time set (Domingo-Almenara et al. 2019):
One block for each molecule: values may come before it.

Test: gradient 5% acetonitrile 3 min, to 50% in 2 min, to 85% in 15 min, held 3 min, 100 µL/min
Details: column: Zorbax Extend-C18 2.1 x 50 mm; eluents: water / acetonitrile, 0.1% formic acid
Outline: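 Data were gathered over 3 months by HPLC coupled to a quadrupole time-of-flight mass spectrometer, operated in positive and negative ionization mode. Mixtures of ~100 pure standards ran on a Zorbax Extend-C18 column (2.1 × 50 mm, 1.8 μm) at 100 μL/min, with water and acetonitrile each containing 0.1% formic acid and dead and dwell volumes of 40 μL and 900 μL. Retention time was read from adduct peaks picked by computer and checked manually.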

Structure (SMILES): CCc1nc(-c2ccc(C(=O)N3CCN(c4ncccn4)CC3)cc2)cs1
RP-LC retention time: 843 s

Structure (SMILES): O=C(Nc1nnc(C2CC(=O)N(c3ccc(Cl)cc3)C2)o1)c1cccc(F)c1 (configuration not stated)
RP-LC retention time: 786 s

Structure (SMILES): O=C1CCCCC(Cc2cccnc2)(C(=O)NCc2ccc3c(c2)OCO3)N1 (configuration not stated)
RP-LC retention time: 591 s

Structure (SMILES): CCCC(=O)N1C[C@H]2C[C@H](C1)[C@H]1CCCC(=O)N1C2
RP-LC retention time: 601 s

Structure (SMILES): COc1ccc(S(=O)(=O)CCC(=O)N2CCCC2c2nc(-c3ccc(Cl)cc3)no2)cc1 (configuration not stated)
RP-LC retention time: 1000 s

Structure (SMILES): CC1=C(c2ccccc2)S(=O)(=O)N=C1N1CCN(c2ccccn2)CC1
RP-LC retention time: 632 s

Structure (SMILES): CS(=O)(=O)N1CCC(C(=O)NCc2ccsc2)CC1
RP-LC retention time: 616 s

Structure (SMILES): CCN1c2cc(C(=O)NCCC3=CCCCC3)ccc2C(=O)N2CCCCC21 (configuration not stated)
RP-LC retention time: 959 s

Structure (SMILES): O=C(Cc1ccc(Cl)cc1)N1CCCN(C2CCN(CC3CC3)C2=O)CC1 (configuration not stated)
RP-LC retention time: 581 s

Structure (SMILES): Cc1nc(-c2noc(-c3ccc(F)cc3)n2)cn1CC(=O)NC1CCc2ccccc21 (configuration not stated)
RP-LC retention time: 874 s

Structure (SMILES): C=CCn1c(=O)c2ccccc2n(Cc2nc(-c3ccccc3)no2)c1=O
RP-LC retention time: 1000 s

Structure (SMILES): Cc1cc(C)n(-c2ccnc(N3CCC(C(=O)N4CCc5ccccc5C4)CC3)n2)n1
RP-LC retention time: 935 s

Structure (SMILES): Cc1cccc(-c2nocc2CCC(=O)NCc2ccccc2)c1
RP-LC retention time: 907 s

Structure (SMILES): Cc1ccn(-c2ccc(C(=O)NC(C)C)cn2)n1
RP-LC retention time: 715 s

Structure (SMILES): Cn1nc(C(=O)N2CCCCC2)c2c1CCN(C(=O)CCC(=O)NCCN1CCCCC1)C2
RP-LC retention time: 586 s

Results, then the molecule that gave them:

RP-LC retention time: 725 s
Structure (SMILES): CCc1ccccc1NC(=O)N1CC(n2cc(COCC3CC3)nn2)C1

RP-LC retention time: 731 s
Structure (SMILES): COC(=O)c1ccc(NS(=O)(=O)c2cc3n(c2)CCN(C(C)C)C3=O)cc1

RP-LC retention time: 700 s
Structure (SMILES): Cc1cc(-c2nnc(C3CC3)o2)c(C)n1CC(=O)Nc1ccc(N2CCOCC2)cc1

RP-LC retention time: 1090 s
Structure (SMILES): COc1ccc(OC)c(C(O)Cn2ccn3nc(-c4ccc(C(C)C)cc4)cc3c2=O)c1 (configuration not stated)

RP-LC retention time: 846 s
Structure (SMILES): O=C(Nc1ccc(N2CCOCC2)cc1)c1cc(C2CC2)n2nccc2n1

RP-LC retention time: 706 s
Structure (SMILES): COc1ccc(-c2cn3cccnc3n2)cc1NC(=O)c1ccccc1F

RP-LC retention time: 792 s
Structure (SMILES): O=C(NC1CCCCC1)N1CC(F)(F)C[C@H]1CN1CCc2ccccc2C1

RP-LC retention time: 1010 s
Structure (SMILES): CCOc1ccccc1C1CC(=O)Nc2c(S(=O)(=O)c3ccccc3)csc21 (configuration not stated)

RP-LC retention time: 847 s
Structure (SMILES): O=C(c1cc(F)ccc1Cl)N1CCN(c2cc(-c3ccc(F)cc3)[nH]n2)CC1

RP-LC retention time: 1060 s
Structure (SMILES): Brc1ccc(OCc2nnc3sc(CCc4ccccc4)nn23)cc1

RP-LC retention time: 678 s
Structure (SMILES): NC[C@@](O)(c1ccc(Cl)cc1)c1ccc(-c2cn[nH]c2)cc1

RP-LC retention time: 787 s
Structure (SMILES): CC(C)C(=O)Nc1nc(-c2ccc3c(c2)NC(=O)C(C)O3)cs1 (configuration not stated)

RP-LC retention time: 814 s
Structure (SMILES): CC1Cc2ccccc2N1C(=O)c1ccc(=O)n(CCC(=O)N2CCCCCC2)n1 (configuration not stated)

RP-LC retention time: 904 s
Structure (SMILES): Cn1cc(C2=CCN(S(=O)(=O)c3cccc(C#N)c3)CC2)c2cccnc21

RP-LC retention time: 970 s
Structure (SMILES): COc1cc(NC(=O)Nc2nccn(-c3ccc(Cl)cc3)c2=O)cc(OC)c1

RP-LC retention time: 957 s
Structure (SMILES): COc1ccc(S(=O)(=O)N2CCCC(C(=O)Nc3ccc4c(c3)OCO4)C2)cc1C (configuration not stated)

RP-LC retention time: 708 s
Structure (SMILES): O=C([C@@H]1C[C@H](F)CN1C(=O)Nc1cccc(F)c1)N1CCCCC1

RP-LC retention time: 881 s
Structure (SMILES): O=C([C@@H]1C[C@H](F)CN1S(=O)(=O)Cc1ccc(Cl)cc1)N1CCCCC1

RP-LC retention time: 695 s
Structure (SMILES): c1cc(-c2noc(C3CC3)n2)cc(N2CCOCC2)n1

RP-LC retention time: 975 s
Structure (SMILES): Cn1cnc2c(C(=O)NC3CCCCC3)nn(-c3cccc(Cl)c3)c2c1=O

RP-LC retention time: 632 s
Structure (SMILES): CCC(C)NC(=O)CC1Sc2ncccc2N(C)C1=O (configuration not stated)

RP-LC retention time: 666 s
Structure (SMILES): COCCCNC(=O)C1c2ccccc2C(=O)N(C)C1c1ccc(OC)c(OC)c1 (configuration not stated)
